From US8455475B2 (Gruenenthal GmbH, priority 2009, dated 2013)

Assays:
[1] = molecular target: T1, human B1R (bradykinin receptor 1) (Homo sapiens, UniProt P46663); assay: FLIPR Ca2+ assay (Fluo-4) on CHO K1 cells stably transfected with the human B1R gene (hB1R cells): % inhibition at 10 μM / IC50, agonist Lys-Des-Arg9-bradykinin; format: cell-based; conditions: for inhibition at 10 µM: CHO-K1, human B1R
T1 construct: expressed in transfected cells; host or cells: CHO K1 cells
T1 sequence (P46663 1-353): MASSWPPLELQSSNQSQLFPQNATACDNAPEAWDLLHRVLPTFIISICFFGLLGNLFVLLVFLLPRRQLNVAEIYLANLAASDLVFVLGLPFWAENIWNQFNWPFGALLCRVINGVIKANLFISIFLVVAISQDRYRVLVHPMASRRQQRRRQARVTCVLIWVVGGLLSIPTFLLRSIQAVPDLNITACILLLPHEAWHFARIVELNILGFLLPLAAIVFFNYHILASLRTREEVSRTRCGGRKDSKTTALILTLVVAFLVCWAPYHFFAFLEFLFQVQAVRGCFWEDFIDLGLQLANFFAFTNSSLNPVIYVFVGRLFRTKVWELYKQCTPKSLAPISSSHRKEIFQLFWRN
Method in brief: (§1)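 Cells were Fluo-4-loaded, then test compound (10 μM, or a concentration series for IC50) was preincubated 10–20 min before agonist challenge at EC80: Lys-Des-Arg9-bradykinin for hB1R, Des-Arg9-bradykinin for rB1R. Peak Ca2+ fluorescence (ex 488/em 540 nm) gave % inhibition versus maximal achievable inhibition.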

[2] = molecular target: T2, rat B1R (bradykinin receptor 1) (Rattus norvegicus, UniProt P97583); assay: FLIPR Ca2+ assay (Fluo-4) on CHO K1 cells stably transfected with the B1R gene of the rat (rB1R cells): % inhibition at 10 μM / IC50, agonist Des-Arg9-bradykinin; format: cell-based; conditions: for inhibition at 10 µM: CHO-K1, rat B1R
T2 construct: expressed in transfected cells; host or cells: CHO K1 cells
T2 sequence (P97583 1-337): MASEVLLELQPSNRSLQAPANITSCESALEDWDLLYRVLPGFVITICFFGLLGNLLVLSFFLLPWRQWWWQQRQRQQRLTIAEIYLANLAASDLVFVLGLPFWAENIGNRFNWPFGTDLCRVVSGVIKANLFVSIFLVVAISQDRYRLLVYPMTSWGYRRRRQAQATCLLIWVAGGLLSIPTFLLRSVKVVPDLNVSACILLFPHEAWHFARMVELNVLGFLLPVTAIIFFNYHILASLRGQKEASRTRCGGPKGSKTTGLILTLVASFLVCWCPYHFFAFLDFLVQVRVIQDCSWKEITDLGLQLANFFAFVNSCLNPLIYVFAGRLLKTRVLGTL
Method in brief: as §1

Structure (SMILES)	inhibition at 10 µM [1]	inhibition at 10 µM [2]	% Inhibition (human B1R) at 10 μM [1]	% Inhibition (rat B1R) at 10 μM [2]
CN(C(=O)c1ccccc1C(F)(F)F)C1CCc2ccc(C(=O)N3CCC4(CC3)CCN(c3ccncc3)CC4)cc21 (stereo not drawn) [Ind_CC-015, N-methyl-N-[6-(9-pyridin-4-yl-3,9-diazaspiro[5.5]undecane-3-carbonyl)-2,3-dihydro-1H-inden-1-yl]-2-(trifluoromethyl)-benzamide]	100%	101%		
CN(C(=O)c1sccc1Cl)C1CCc2ccc(C(=O)N3CCC4(CC3)CCN(c3ccncc3)CC4)cc21 (stereo not drawn) [Ind_CC-016, 3-chloro-N-methyl-N-[6-(9-pyridin-4-yl-3,9-diazaspiro[5.5]undecane-3-carbonyl)-2,3-dihydro-1H-inden-1-yl]-thiophene-2-carboxylic acid amide]	100%	102%		
CN(C(=O)c1ccc(Cl)s1)C1CCc2ccc(C(=O)N3CCC4(CC3)CCN(c3ccncc3)CC4)cc21 (stereo not drawn) [Ind_CC-017, 5-chloro-N-methyl-N-[6-(9-pyridin-4-yl-3,9-diazaspiro[5.5]undecane-3-carbonyl)-2,3-dihydro-1H-inden-1-yl]-thiophene-2-carboxylic acid amide]	99%	102%		
CN(C(=O)c1ccc(Cl)cc1Cl)C1CCc2ccc(C(=O)N3CCC4(CC3)CCN(c3ccncc3)CC4)cc21 (stereo not drawn) [Ind_CC-018, 2,4-dichloro-N-methyl-N-[6-(9-pyridin-4-yl-3,9-diazaspiro[5.5]undecane-3-carbonyl)-2,3-dihydro-1H-inden-1-yl]-benzamide]	98%	98%		
CN(C(=O)Cc1ccccc1Cl)C1CCc2ccc(C(=O)N3CCC4(CC3)CCN(c3ccncc3)CC4)cc21 (stereo not drawn) [Ind_CC-019, 2-(2-chlorophenyl)-N-methyl-N-[6-(9-pyridin-4-yl-3,9-diazaspiro[5.5]undecane-3-carbonyl)-2,3-dihydro-1H-inden-1-yl]-acetamide]	99%	95%		
CN(C(=O)/C=C/c1ccccc1Cl)C1CCc2ccc(C(=O)N3CCC4(CC3)CCN(c3ccncc3)CC4)cc21 (stereo not drawn) [Ind_CC-020, (E)-3-(2-chlorophenyl)-N-methyl-N-[6-(9-pyridin-4-yl-3,9-diazaspiro[5.5]undecane-3-carbonyl)-2,3-dihydro-1H-inden-1-yl]-acrylamide]	89%	88%		
CN(C(=O)C(c1ccccc1)c1ccccc1Cl)C1CCc2ccc(C(=O)N3CCC4(CC3)CCN(c3ccncc3)CC4)cc21 (stereo not drawn) [Ind_CC-021, 2-(2-chlorophenyl)-N-methyl-2-phenyl-N-[6-(9-pyridin-4-yl-3,9-diazaspiro[5.5]undecane-3-carbonyl)-2,3-dihydro-1H-inden-1-yl]-acetamide]	94%	96%		
CN(C(=O)Nc1ccc(Cl)c(Cl)c1)C1CCc2ccc(C(=O)N3CCC4(CC3)CCN(c3ccncc3)CC4)cc21 (stereo not drawn) [Ind_CC-022, 3-(3,4-dichlorophenyl)-1-methyl-1-[6-(9-pyridin-4-yl-3,9-diazaspiro[5.5]undecane-3-carbonyl)-2,3-dihydro-1H-inden-1-yl]-urea]	91%	75%		
CN(C(=O)NCc1ccccc1Cl)C1CCc2ccc(C(=O)N3CCC4(CC3)CCN(c3ccncc3)CC4)cc21 (stereo not drawn) [Ind_CC-023]			98%	93%
O=C(NC1CCc2ccc(C(=O)N3CCC4(CC3)CCN(c3ccncc3)C4)cc21)c1sccc1Cl (stereo not drawn) [Ind_CC-042, 3-chloro-N-[6-(2-pyridin-4-yl-2,8-diazaspiro[4.5]decane-8-carbonyl)-2,3-dihydro-1H-inden-1-yl]-thiophene-2-carboxylic acid amide]	98%	101%		
O=C(NC1CCc2ccc(C(=O)N3CCC4(CC3)CCN(c3ccncc3)C4)cc21)c1ccc(Cl)s1 (stereo not drawn) [Ind_CC-043, 5-chloro-N-[6-(2-pyridin-4-yl-2,8-diazaspiro[4.5]decane-8-carbonyl)-2,3-dihydro-1H-inden-1-yl]-thiophene-2-carboxylic acid amide]	79%	88%		
O=C(NC1CCc2ccc(C(=O)N3CCC4(CC3)CCN(c3ccncc3)C4)cc21)c1ccc(Cl)cc1Cl (stereo not drawn) [Ind_CC-044, 2,4-dichloro-N-[6-(2-pyridin-4-yl-2,8-diazaspiro[4.5]decane-8-carbonyl)-2,3-dihydro-1H-inden-1-yl]-benzamide]	97%	100%		
O=C(Cc1ccccc1Cl)NC1CCc2ccc(C(=O)N3CCC4(CC3)CCN(c3ccncc3)C4)cc21 (stereo not drawn) [Ind_CC-045, 2-(2-chlorophenyl)-N-[6-(2-pyridin-4-yl-2,8-diazaspiro[4.5]decane-8-carbonyl)-2,3-dihydro-1H-inden-1-yl]-acetamide]	100%	101%		
O=C(/C=C/c1ccccc1Cl)NC1CCc2ccc(C(=O)N3CCC4(CC3)CCN(c3ccncc3)C4)cc21 (stereo not drawn) [Ind_CC-046, (E)-3-(2-chlorophenyl)-N-[6-(2-pyridin-4-yl-2,8-diazaspiro[4.5]decane-8-carbonyl)-2,3-dihydro-1H-inden-1-yl]-acrylamide]	98%	68%		
O=C(Nc1ccc(Cl)c(Cl)c1)NC1CCc2ccc(C(=O)N3CCC4(CC3)CCN(c3ccncc3)C4)cc21 (stereo not drawn) [Ind_CC-047]			94%	60%
O=C(NCc1ccccc1Cl)NC1CCc2ccc(C(=O)N3CCC4(CC3)CCN(c3ccncc3)C4)cc21 (stereo not drawn) [Ind_CC-048, 1-[(2-chlorophenyl)-methyl]-3-[6-(2-pyridin-4-yl-2,8-diazaspiro[4.5]decane-8-carbonyl)-2,3-dihydro-1H-inden-1-yl]-urea]	98%	88%		
O=C(c1ccc2c(c1)C(NS(=O)(=O)c1ccccc1Cl)CC2)N1CCC2(CC1)CCN(c1ccncc1)C2 (stereo not drawn) [Ind_CC-049, 2-chloro-N-[6-(2-pyridin-4-yl-2,8-diazaspiro[4.5]decane-8-carbonyl)-2,3-dihydro-1H-inden-1-yl]-benzenesulfonic acid amide]	99%	101%		
COc1cc(C)c(S(=O)(=O)NC2CCc3ccc(C(=O)N4CCC5(CC4)CCN(c4ccncc4)C5)cc32)c(C)c1 (stereo not drawn) [Ind_CC-050, 4-methoxy-2,6-dimethyl-N-[6-(2-pyridin-4-yl-2,8-diazaspiro[4.5]decane-8-carbonyl)-2,3-dihydro-1H-inden-1-yl]-benzenesulfonic acid amide]	100%	93%		
O=C(NC1CCc2ccc(C(=O)N3CCC4(CC3)CCN(c3ccncc3)C4)cc21)C(c1ccccc1)c1ccccc1Cl (stereo not drawn) [Ind_CC-051, 2-(2-chlorophenyl)-2-phenyl-N-[6-(2-pyridin-4-yl-2,8-diazaspiro[4.5]decane-8-carbonyl)-2,3-dihydro-1H-inden-1-yl]-acetamide]	71%	99%		
CC1(C)CC(NC(=O)c2ccccn2)c2cc(C(=O)N3CCC4(CC3)CCN(c3ccncc3)CC4)ccc21 (stereo not drawn) [Ind_CC-052, N-[3,3-dimethyl-6-(9-pyridin-4-yl-3,9-diazaspiro[5.5]undecane-3-carbonyl)-1,2-dihydro-inden-1-yl]-pyridine-2-carboxylic acid amide]	62%	81%		
CC1(C)CC(NC(=O)Cc2ccccc2Cl)c2cc(C(=O)N3CCC4(CC3)CCN(c3ccncc3)CC4)ccc21 (stereo not drawn) [Ind_CC-053, 2-(2-chlorophenyl)-N-[3,3-dimethyl-6-(9-pyridin-4-yl-3,9-diazaspiro[5.5]undecane-3-carbonyl)-1,2-dihydro-inden-1-yl]-acetamide]	99%	103%		
CC1(C)CC(NC(=O)c2ccc(Cl)s2)c2cc(C(=O)N3CCC4(CC3)CCN(c3ccncc3)CC4)ccc21 (stereo not drawn) [Ind_CC-054, 5-chloro-N-[3,3-dimethyl-6-(9-pyridin-4-yl-3,9-diazaspiro[5.5]undecane-3-carbonyl)-1,2-dihydro-inden-1-yl]-thiophene-2-carboxylic acid amide]	96%	102%		
CC1(C)CC(NC(=O)c2sccc2Cl)c2cc(C(=O)N3CCC4(CC3)CCN(c3ccncc3)CC4)ccc21 (stereo not drawn) [Ind_CC-055, 3-chloro-N-[3,3-dimethyl-6-(9-pyridin-4-yl-3,9-diazaspiro[5.5]undecane-3-carbonyl)-1,2-dihydro-inden-1-yl]-thiophene-2-carboxylic acid amide]	99%	102%		
CC1(C)CC(NC(=O)C(c2ccccc2)c2ccccc2Cl)c2cc(C(=O)N3CCC4(CC3)CCN(c3ccncc3)CC4)ccc21 (stereo not drawn) [Ind_CC-056, 2-(2-chlorophenyl)-N-[3,3-dimethyl-6-(9-pyridin-4-yl-3,9-diazaspiro[5.5]-undecane-3-carbonyl)-1,2-dihydro-inden-1-yl]-2-phenyl-acetamide]	41%	94%		
